Measured values taken from ChEMBL document CHEMBL1201862, “PubChem BioAssay data set” (2004).
Values belong to the compound of their own block, whether it stands above or below them. Activity calls are given as the source filed them.

How the values were obtained:
[1] = target: T1, Sentrin-specific protease 1 (Homo sapiens, UniProt Q9P0U3); assay: SENP1 catalytic domain blockers, concentration series – biochemical, kinetic FRET, dose response (AID 651697); format: functional; details: read-out: IC50_Mean
T1 sequence (Q9P0U3 whole entry): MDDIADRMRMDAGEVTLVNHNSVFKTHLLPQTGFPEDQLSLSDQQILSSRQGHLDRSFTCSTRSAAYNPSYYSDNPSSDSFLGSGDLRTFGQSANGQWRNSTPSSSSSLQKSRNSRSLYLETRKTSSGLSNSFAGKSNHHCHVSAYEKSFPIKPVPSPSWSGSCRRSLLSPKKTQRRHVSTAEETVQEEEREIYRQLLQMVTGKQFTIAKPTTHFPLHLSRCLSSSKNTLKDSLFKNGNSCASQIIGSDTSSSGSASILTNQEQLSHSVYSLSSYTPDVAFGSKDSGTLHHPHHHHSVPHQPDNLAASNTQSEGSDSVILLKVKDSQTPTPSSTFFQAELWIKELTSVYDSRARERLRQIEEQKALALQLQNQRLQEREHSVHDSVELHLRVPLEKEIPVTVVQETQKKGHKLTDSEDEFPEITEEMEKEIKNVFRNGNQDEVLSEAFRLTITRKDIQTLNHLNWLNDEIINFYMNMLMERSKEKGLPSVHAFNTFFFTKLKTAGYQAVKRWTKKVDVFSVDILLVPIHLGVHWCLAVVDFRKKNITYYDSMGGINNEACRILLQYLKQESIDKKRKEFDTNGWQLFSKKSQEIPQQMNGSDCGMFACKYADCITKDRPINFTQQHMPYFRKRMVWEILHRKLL

[2] = target: T1, Sentrin-specific protease 1; assay: Dose response confirmation of small molecule inhibitors of the catalytic domain of the SUMO protease, SENP1 in a FRET assay.; format: functional; details: read-out: IC50_Mean
Mu-type opioid receptor = Mu-type opioid receptor (Homo sapiens, UniProt P35372); format: functional, cell-based;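 note: U2OS cells with beta-arrestin recruitment to OPRM1 by beta-gal complementation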
[3] = target: 5-hydroxytryptamine receptor 2A (Mus musculus, UniProt P35363); format: functional, cell-based;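 note: CHO-K1 cells with tagged receptor and beta-arrestin; agonist potency measured as compound-induced activation of the receptor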
[4] = target: T2, Rac GTPase-activating protein 1 (Homo sapiens, UniProt Q9H0H5); assay: blockers of MgcRacGAP-driven Rac1 GTP hydrolysis – biochemical, ADP Hunter fluorescence, primary and confirmatory, confirmation (AID 624330); format: functional
T2 sequence (Q9H0H5 whole entry): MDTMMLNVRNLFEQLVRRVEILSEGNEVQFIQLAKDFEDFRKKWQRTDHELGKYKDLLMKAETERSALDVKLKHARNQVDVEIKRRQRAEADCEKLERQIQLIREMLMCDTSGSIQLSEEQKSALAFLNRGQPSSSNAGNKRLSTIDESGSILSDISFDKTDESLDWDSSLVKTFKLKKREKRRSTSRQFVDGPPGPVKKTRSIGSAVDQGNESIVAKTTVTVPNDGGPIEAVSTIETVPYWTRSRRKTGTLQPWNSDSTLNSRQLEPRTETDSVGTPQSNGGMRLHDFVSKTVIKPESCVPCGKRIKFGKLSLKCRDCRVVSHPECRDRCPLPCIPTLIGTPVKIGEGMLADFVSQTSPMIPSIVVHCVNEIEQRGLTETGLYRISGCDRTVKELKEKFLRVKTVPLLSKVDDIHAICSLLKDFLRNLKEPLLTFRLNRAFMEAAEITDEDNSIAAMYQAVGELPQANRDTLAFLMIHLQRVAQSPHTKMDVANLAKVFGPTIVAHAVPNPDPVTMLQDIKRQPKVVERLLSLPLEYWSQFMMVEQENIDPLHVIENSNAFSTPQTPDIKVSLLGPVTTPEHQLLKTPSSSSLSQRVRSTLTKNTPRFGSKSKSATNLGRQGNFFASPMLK

[5] = target: Benomyl/methotrexate resistance protein (Candida albicans, UniProt P28873); assay: Candida albicans Mdr1 pump inhibition curves – singleplex, Cherry Pick1 hits, dose response (AID 588608); format: functional
[6] = target: T3, High affinity choline transporter 1 (Homo sapiens, UniProt Q9GZV3); assay: human choline transporter blockers, potency – cell-based, 5-point CRC, membrane potential dye, dose response (AID 504840); format: functional
T3 sequence (Q9GZV3 whole entry): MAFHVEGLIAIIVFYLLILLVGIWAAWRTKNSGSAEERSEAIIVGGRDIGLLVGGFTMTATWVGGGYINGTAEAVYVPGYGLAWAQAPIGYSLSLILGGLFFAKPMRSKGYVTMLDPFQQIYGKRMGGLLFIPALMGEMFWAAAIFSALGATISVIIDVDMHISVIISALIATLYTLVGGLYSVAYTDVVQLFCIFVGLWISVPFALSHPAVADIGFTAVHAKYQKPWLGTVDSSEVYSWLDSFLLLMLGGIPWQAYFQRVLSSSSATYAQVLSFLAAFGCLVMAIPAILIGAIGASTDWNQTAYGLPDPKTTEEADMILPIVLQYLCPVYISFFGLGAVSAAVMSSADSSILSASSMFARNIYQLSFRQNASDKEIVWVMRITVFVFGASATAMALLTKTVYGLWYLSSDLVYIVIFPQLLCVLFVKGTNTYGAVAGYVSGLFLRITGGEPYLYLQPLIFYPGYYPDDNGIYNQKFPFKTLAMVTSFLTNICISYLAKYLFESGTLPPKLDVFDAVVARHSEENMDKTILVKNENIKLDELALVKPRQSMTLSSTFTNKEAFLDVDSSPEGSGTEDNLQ

[7] = target: T3, High affinity choline transporter 1; assay: human choline transporter blockers, potency – cell-based, 10-point CRC, membrane potential dye, dose response (AID 588401); format: functional;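 note: membrane potential dye fluorescence of choline-evoked depolarization via CHT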
Protein Wnt-3a = Protein Wnt-3a (Mus musculus, UniProt P27467); assay: antagonism of Wnt3a pathway luciferase reporter – Wnt-LIGHT cells, luminescence, selectivity assay for Gli-SUFU antagonist project, dose response (AID 651570); format: functional; details: read-out: IC50_Mean;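 note: Wnt-LIGHT reporter cells stimulated with conditioned medium from Wnt3a-producing cells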
[8] = target: Mitochondrial peptide methionine sulfoxide reductase (Bos taurus, UniProt P54149); format: functional;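 note: absorbance read-out, biochemical high-throughput dose-response screen for MsrA inhibitors, confirmatory; recombinant bovine MsrA coupled to E. coli TrxB with NADPH and selenocystamine; potency is for inhibitors of MsrA activity on DMSO substrate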
[9] = target: T4, Sentrin-specific protease 8 (Homo sapiens, UniProt Q96LD8); format: functional;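 note: kinetic enzyme assay of SENP8 cleaving a Nedd8 protein substrate, dose-response confirmation of screening hits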
T4 sequence (Q96LD8 whole entry): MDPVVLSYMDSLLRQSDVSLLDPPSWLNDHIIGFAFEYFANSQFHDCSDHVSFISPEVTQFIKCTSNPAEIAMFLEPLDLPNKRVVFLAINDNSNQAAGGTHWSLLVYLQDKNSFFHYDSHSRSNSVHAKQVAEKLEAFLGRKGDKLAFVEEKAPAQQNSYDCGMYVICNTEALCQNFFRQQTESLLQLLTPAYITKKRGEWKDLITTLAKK

[10] = target: T4, Sentrin-specific protease 8; assay: inhibition of human SENP8 cleavage activity – biochemical, luminescence, SAR follow-up (AID 504501); format: functional
Caspase-3 = target: T5, Caspase-3 (Homo sapiens, UniProt P42574); assay: SAR Analysis of small molecule inhibitors of Sentrin-specific proteases (SENPs) using a Caspase-3 Selectivity assay. [Related pubchem assays (depositor defined):AID2540, AID2599, AID434973, AID489001]; format: functional
T5 sequence (P42574 whole entry): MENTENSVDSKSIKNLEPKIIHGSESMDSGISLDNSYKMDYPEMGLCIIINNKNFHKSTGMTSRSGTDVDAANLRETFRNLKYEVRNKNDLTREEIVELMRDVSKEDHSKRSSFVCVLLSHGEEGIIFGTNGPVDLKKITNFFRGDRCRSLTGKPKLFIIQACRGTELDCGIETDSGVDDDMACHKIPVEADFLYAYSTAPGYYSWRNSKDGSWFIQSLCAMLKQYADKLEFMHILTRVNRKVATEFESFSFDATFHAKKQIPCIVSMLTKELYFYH

[11] = target: T6, Sentrin-specific protease 6 (Homo sapiens, UniProt Q9GZR1); assay: SAR Analysis of small molecule inhibitors of Sentrin-specific protease 6 (SENP6) using a Luminescent assay. [Related pubchem assays (depositor defined):AID2582, AID2599]; format: functional
T6 sequence (Q9GZR1 whole entry): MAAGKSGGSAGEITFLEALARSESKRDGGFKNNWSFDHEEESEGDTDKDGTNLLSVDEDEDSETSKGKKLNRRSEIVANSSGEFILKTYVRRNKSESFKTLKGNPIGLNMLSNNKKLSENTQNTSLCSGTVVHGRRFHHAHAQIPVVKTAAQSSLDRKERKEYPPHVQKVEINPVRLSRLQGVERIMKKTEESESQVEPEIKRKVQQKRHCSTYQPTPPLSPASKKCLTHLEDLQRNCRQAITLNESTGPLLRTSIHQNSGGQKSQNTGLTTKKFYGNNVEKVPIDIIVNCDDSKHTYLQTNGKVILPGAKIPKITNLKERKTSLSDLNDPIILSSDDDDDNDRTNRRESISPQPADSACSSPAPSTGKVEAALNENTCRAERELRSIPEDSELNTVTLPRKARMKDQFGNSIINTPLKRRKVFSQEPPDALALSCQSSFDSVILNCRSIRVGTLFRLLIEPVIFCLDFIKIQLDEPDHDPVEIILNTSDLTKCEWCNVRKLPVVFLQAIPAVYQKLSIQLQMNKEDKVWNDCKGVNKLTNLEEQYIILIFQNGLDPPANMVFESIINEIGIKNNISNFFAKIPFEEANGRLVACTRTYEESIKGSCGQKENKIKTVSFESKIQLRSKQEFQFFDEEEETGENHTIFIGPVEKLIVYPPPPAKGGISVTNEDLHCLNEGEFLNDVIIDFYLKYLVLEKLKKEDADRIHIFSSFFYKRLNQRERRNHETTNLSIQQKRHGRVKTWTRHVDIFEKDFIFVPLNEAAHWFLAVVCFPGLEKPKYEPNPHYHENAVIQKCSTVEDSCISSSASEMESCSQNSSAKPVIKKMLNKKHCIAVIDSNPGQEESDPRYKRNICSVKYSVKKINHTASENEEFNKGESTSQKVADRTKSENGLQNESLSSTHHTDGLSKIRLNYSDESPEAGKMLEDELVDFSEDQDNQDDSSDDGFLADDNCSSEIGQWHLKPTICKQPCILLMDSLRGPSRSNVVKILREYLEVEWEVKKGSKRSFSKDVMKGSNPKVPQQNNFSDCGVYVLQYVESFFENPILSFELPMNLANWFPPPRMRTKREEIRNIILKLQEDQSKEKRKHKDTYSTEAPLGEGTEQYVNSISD

[12] = target: T7, Sentrin-specific protease 7 (Homo sapiens, UniProt Q9BQF6); assay: inhibition of human SENP7 cleavage activity – biochemical, luminescence, SAR follow-up (AID 504497); format: functional
T7 sequence (Q9BQF6 whole entry): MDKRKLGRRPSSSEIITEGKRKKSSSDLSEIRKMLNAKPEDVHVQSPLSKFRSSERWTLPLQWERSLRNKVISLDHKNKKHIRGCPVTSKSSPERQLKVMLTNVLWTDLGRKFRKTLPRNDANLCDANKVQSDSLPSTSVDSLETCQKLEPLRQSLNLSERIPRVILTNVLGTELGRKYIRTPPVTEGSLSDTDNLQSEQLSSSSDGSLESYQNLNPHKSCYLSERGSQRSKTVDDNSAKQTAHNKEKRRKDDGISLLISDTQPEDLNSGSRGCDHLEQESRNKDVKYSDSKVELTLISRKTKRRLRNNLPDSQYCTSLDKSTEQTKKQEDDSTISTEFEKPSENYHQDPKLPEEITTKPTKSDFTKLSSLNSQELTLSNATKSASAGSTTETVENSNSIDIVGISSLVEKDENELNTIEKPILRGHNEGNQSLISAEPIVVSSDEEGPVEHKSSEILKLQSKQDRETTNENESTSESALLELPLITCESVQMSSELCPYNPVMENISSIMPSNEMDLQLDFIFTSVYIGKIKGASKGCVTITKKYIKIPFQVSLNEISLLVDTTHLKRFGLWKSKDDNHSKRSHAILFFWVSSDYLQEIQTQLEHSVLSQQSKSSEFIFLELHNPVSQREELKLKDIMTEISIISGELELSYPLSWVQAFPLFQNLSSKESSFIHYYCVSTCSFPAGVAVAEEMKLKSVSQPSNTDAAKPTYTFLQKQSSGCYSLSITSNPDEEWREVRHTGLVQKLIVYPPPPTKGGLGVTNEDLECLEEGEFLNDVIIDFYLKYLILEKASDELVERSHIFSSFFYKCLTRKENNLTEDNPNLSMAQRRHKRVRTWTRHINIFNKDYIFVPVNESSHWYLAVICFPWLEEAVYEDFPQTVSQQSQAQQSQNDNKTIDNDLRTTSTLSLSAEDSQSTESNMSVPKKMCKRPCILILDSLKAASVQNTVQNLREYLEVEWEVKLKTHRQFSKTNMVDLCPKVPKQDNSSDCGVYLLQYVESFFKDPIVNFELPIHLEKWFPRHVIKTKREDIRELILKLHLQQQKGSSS

Mitochondrial peptide methionine sulfoxide reductase, sequence (P54149 whole entry): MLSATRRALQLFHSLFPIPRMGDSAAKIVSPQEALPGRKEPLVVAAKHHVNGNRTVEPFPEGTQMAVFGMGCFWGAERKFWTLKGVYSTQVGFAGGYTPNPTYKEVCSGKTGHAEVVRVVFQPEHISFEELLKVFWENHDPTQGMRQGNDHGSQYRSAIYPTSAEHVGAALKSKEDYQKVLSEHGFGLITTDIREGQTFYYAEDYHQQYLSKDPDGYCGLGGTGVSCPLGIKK
Mu-type opioid receptor, sequence (P35372 whole entry): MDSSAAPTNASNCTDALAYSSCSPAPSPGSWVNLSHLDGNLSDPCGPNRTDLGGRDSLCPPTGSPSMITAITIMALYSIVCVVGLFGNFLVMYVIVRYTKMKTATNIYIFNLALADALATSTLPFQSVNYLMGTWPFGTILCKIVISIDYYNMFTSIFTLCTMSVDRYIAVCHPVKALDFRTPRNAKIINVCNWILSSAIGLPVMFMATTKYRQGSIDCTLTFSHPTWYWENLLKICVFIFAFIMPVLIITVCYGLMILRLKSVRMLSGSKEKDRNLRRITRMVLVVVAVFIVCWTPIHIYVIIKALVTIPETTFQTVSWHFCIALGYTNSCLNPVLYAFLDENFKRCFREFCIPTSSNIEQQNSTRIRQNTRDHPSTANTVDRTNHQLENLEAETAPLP
Protein Wnt-3a, sequence (P27467 whole entry): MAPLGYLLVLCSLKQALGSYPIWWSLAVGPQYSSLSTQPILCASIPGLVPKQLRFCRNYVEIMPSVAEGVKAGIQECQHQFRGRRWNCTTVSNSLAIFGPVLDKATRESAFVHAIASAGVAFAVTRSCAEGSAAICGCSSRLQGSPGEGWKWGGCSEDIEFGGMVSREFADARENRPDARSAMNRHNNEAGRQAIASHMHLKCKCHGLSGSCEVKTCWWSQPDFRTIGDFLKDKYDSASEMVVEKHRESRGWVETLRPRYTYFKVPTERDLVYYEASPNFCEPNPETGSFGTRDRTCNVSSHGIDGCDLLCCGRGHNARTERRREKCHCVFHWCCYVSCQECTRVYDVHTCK
Benomyl/methotrexate resistance protein, sequence (P28873 whole entry): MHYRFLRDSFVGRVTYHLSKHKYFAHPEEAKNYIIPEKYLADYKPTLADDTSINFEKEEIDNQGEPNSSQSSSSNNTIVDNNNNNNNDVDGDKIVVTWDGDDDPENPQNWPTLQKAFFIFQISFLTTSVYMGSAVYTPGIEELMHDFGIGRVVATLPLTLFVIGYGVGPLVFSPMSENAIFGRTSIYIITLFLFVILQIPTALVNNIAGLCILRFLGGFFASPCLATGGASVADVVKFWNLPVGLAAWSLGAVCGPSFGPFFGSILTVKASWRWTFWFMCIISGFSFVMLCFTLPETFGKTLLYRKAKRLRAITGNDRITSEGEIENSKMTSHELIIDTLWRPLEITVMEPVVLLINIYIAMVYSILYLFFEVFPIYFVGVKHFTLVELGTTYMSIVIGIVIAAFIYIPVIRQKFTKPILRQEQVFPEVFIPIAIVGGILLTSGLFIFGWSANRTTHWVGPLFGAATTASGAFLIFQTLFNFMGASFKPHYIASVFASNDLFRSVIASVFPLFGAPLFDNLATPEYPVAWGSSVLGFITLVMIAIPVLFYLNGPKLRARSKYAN
5-hydroxytryptamine receptor 2A, sequence (P35363 whole entry): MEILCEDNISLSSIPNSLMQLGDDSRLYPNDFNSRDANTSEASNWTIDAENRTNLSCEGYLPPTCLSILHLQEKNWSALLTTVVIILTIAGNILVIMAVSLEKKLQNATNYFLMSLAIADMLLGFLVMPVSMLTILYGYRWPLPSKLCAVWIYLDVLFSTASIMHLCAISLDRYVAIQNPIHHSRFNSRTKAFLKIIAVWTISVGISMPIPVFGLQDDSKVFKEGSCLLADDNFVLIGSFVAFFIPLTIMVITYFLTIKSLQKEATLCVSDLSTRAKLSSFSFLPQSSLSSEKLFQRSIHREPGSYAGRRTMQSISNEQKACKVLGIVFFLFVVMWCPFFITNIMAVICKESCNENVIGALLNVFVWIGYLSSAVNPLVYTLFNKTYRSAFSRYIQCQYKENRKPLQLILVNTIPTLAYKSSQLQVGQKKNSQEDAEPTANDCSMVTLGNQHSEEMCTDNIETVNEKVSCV

Structure (SMILES): O=C(COC(=O)c1c2ccccc2cc2ccccc12)Nc1ncc(C(F)(F)F)cc1Cl
EC50 [5]: 23 µM (active)

Structure (SMILES): C/C(=N\Nc1ccc([N+](=O)[O-])cc1[N+](=O)[O-])C(C)C(C)C (configuration not stated)
IC50 [8]: 155 µM (inactive)

Structure (SMILES): O=[N+]([O-])c1c[cH-]c(N2CCN(Cc3ccccc3)CC2)c2[c+]1[n-]o[n+]2=O
IC50 [9]: 17.3 µM (active)

Structure (SMILES): FC(F)(F)c1ccc(N/N=C/c2cn(Cc3ccccc3)c3ccccc23)cc1
IC50 [10]: > 99 µM (inactive)
IC50 (Caspase-3): > 99 µM (inactive)
IC50 [11]: > 99 µM (inactive)
IC50 [12]: > 99 µM (inactive)

Structure (SMILES): CNc1cc(Cl)nc(SC)n1
IC50 [6]: 3.92 µM (active)
IC50 [7]: 2.67 µM (active)

Structure (SMILES): CCCc1ccc(OCc2ccc(C(=O)Nc3ccccc3F)cc2)cc1
IC50 [10]: 70.3 µM (active)
IC50 (Caspase-3): > 99 µM (inactive)
IC50 [11]: 43.7 µM (active)
IC50 [12]: 85.3 µM (active)

Next, values leading:

IC50 [1]: 26.6 µM (inactive)
IC50 [2]: 69.6 µM (inactive)
Structure (SMILES): CC(=O)c1ccccc1Oc1nc(CN2CCOCC2)nc2scc(-c3cccs3)c12

EC50 (Mu-type opioid receptor): 92.4 µM (inactive)
EC50 [3]: 76.1 µM (inactive)
IC50 [4]: 98.7 µM (active)
Structure (SMILES): COc1ccc(S(=O)(=O)N2CCC(N3CCN(Cc4ccccc4)CC3)CC2)cc1

IC50 [6]: 7.51 µM (active)
IC50 [7]: 6.21 µM (active)
IC50 (Protein Wnt-3a): 19.9 µM (active)
Structure (SMILES): NC(=O)CC(NC(=O)c1ccccc1)c1ccc(N2CCCCCC2)c([N+](=O)[O-])c1 (configuration not stated)

IC50 [8]: 125 µM (inactive)
Structure (SMILES): CC(Nc1c([N+](=O)[O-])c(=O)oc2ccccc12)c1ccccc1 (configuration not stated)
